Test results: patent US6156316A, “Oncogene fusion protein peptide vaccines” (Sloan-Kettering Institute for Cancer Research, priority 1995, dated 2000)
No end group written: not given here.

biological target: T1, HLA A2.1 (Homo sapiens, UniProt P04439, D140Y/D185E/D98H/E176V/E277Q/G131W/G231S/I119V/I121R/I166T/I218V/L300P/L318F/N151K/N90K/P208A/P217A/Q86G/Q94H/R138H/R169H/T345S); experiment: biochemical; assay type: binding; settings: not given
T1 construct: endogenous in cells
Description: (§1) Purification of HLA class I molecules.

Compound | IC50 [µM]
HVASGAGEAAI | > 50
CITQGKAI | > 50
ATGFKQSSKAL [ATGFKQSSKAL] | > 30
TINKEEAL [TINKEEAL] | > 30
PLTINKEEAL [PLTINKEEAL] | > 30
CC[C@H](C)[C@H](NC(=O)[C@@H](NC(=O)[C@@H](N)CC(C)C)[C@@H](C)O)C(=O)N[C@@H](CC(N)=O)C(=O)N[C@@H](CCCCN)C(=O)N[C@@H](CCC(=O)O)C(=O)N[C@@H](CCC(=O)O)C(=O)N[C@@H](C)C(=O)N[C@@H](CC(C)C)C(=O)O [LTINKEEAL] | > 30
PLTINKEEA | > 30
DLSSCITQGKA | > 50
VASGAGEAAI | > 50

biological target: T2, HLA A3.2 (Homo sapiens, UniProt P04439); experiment: biochemical; assay type: binding; settings: not given
T2 construct: endogenous in cells
T2 sequence (P61769 21-119): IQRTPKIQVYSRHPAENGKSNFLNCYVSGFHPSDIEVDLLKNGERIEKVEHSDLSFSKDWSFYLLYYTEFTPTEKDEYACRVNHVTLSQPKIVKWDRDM
T2 sequence (P04439 25-365): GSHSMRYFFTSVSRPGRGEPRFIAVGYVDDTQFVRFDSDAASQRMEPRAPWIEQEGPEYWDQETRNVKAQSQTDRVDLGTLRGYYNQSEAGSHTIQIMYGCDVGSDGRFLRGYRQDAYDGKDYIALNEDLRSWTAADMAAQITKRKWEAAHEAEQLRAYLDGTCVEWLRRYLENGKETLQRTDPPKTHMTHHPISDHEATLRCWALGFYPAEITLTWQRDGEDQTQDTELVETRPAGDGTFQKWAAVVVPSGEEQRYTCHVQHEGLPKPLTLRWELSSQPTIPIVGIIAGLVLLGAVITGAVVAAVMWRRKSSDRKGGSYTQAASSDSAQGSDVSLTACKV
Description: as §1

Compound | IC50 [nM]
LTINKEEALQR | > 30000
QSSKALQR | > 30000
KQSSKALQR | 43

same assay, conditions: AFFINITY (nM) A3.2, Table 1, CML peptides; 50% inhibition of standard peptide binding

Compound | IC50 [nM]
TINKEEALQR | > 30000
SATGFKQSSK | 5450
HSATGFKQSSK | 400
ATGFKQSSK | 300
TGFKQSSK | > 30000
GFKQSSKALQR | 810
FKQSSKALQR | 545

same assay, conditions: concentration for 50% inhibition, HLA A3.2, text b187

Compound | IC50 [nM]
HSATGFKQSSK | 400
ATGFKQSSK | 100 to 500

tested on: FeLV subunit vaccine; experiment: not given; settings: cats; cited from earlier work

Compound | augmenting the immunogenicity of an FeLV subunit vaccine
QS-21 | highly effective

tested on: HIV-1 recombinant vaccine; experiment: not given; settings: Rhesus monkeys; cited from earlier work

Compound | augmenting the immunogenicity of an HIV-1 recombinant vaccine
QS-21 | highly effective

biological target: HLA B7 (Homo sapiens, UniProt P01889); experiment: biochemical; settings: not given
Sequence (P01889 25-362): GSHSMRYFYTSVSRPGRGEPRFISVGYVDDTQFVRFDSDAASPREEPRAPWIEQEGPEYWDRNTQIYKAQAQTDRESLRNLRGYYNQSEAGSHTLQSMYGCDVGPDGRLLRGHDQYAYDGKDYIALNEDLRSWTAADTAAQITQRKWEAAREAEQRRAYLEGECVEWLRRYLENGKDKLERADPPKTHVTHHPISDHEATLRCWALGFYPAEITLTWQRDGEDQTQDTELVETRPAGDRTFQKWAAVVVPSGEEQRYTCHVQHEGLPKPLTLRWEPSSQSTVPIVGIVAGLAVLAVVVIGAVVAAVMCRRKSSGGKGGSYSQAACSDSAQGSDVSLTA
Sequence (P61769 21-119, further chain): as the sequence (P61769 21-119) above

Compound | IC50 [µM]
IPLTINKEEAL [IPLTINKEEAL] | > 30
